Results: PMC2948605 (Clinical cancer research : an official journal of the …, 2010)

Tests used:
[1] = test system: canine and human osteosarcoma cells; settings: cited from earlier work
[2] = Serum trough VPA concentration; type: in vivo, dog; settings: 48 h after start of oral VPA, before fifth dose
human patients = settings: cited from earlier work
[3] = test system: dogs with spontaneous cancer
[4] = test system: WBC and neutrophil counts; assay: Complete blood counts for myelosuppression; type: in vivo, dog
[5] = test system: acetylated histone H3 in PBMC; assay: PBMC histone H3 acetylation by immunofluorescence; type: in vivo, dog; settings: fourteen evaluable PBMC samples, data not shown
[6] = Doxorubicin and doxorubicinol pharmacokinetics in plasma by LC/MS/MS; type: in vivo, dog; settings: three dogs, highest VPA cohort (240 mg/kg/day), IV DOX
treatment-naïve lymphoma = settings: DOX alone, treatment-naïve lymphoma in dogs; cited from earlier work

Structure (SMILES): CCCC(CCC)C(=O)O [VPA, valproic acid]
- Effect of VPA pre-treatment on sensitivity to doxorubicin ([1]; canine and human osteosarcoma cells): results in sensitization to doxorubicin
- VPA level capable of chemosensitization in vitro ([1]; previous work): 0.5 mM
- Trough serum VPA level reached [2]: up to 0.5 mM
- MTD in human Phase I studies (human patients): 140 mg/kg/day
- Grade 3 metabolic event (ALKP > 5× ULN) ([3]; 180/90 mg/kg cohort, patient with Stage 5 lymphoma): single Grade 3 metabolic event
- Grade 2 anorexia ([3]; 210/105 mg/kg cohort): single Grade 2 anorexia
- Dose limiting toxicities ([3]; dogs at 240 mg/kg/day): no dose limiting toxicities
- Tolerability ([3]; oral VPA, all dose-escalation cohorts): well tolerated in all dose-escalation cohorts
- Maximum tolerated dose (MTD) ([3]; oral VPA, cohorts up to 240/120 mg/kg loading/maintenance): No maximum tolerated dose (MTD) was reached
- VPA dose that can be administered prior to a standard dose of DOX ([3]; oral divalproex for 48 h before DOX, tumor-bearing dogs): up to 240 mg/kg/day
- Myelosuppression induced by VPA ([4]; doses up to 240 mg/kg/day, day 3 vs day 1 WBC and neutrophils): does not induce any significant myelosuppression
- Potentiation of DOX induced myelosuppression ([4]; nadir WBC and neutrophil count day 7 post DOX vs VPA dose): no potentiation of DOX induced myelosuppression
- Correlation of fold change in PBMC histone H3 acetylation with trough VPA levels [5]: did not correlate

Structure (SMILES): COc1cccc2c1C(=O)c1c(O)c3c(c(O)c1C2=O)C[C@@](O)([C@@H](O)CO)C[C@@H]3O[C@H]1C[C@H](N)[C@H](O)[C@H](C)O1 [doxorubicinol]
- PK of the major metabolite versus historical controls receiving DOX alone [6]: no significant changes

Structure (SMILES): COc1cccc2c1C(=O)c1c(O)c3c(c(O)c1C2=O)C[C@@](O)(C(=O)CO)C[C@@H]3O[C@H]1C[C@H](N)[C@H](O)[C@H](C)O1 [DOX, doxorubicin]
- Reported remission rates (treatment-naïve lymphoma): 60-85%
- Cardiotoxicity ([3]; VPA pre-treated dogs, not directly evaluated, cumulative DOX dose < 150 mg/m^2): did not observe any obvious cardiotoxicity
